In data set [1] the test system is Mus musculus. Nature of the data set: Anticonvulsant activity against pentylenetetrazole-induced seizures in Albino mouse at 300 mg/kg, ip after 4 hrs. The class given is functional, organism-based. Set-up: dose 300 mg/kg.
In data set [2] the test system is Mus musculus. Nature of the data set: Anticonvulsant activity against maximal electroshock-induced seizure in Albino mouse at 30 mg/kg, ip after 0.5 hrs. Set-up: dose 30 mg/kg. The class given is functional, organism-based.
Data set [3] deals with Mus musculus. Nature of the data set: Anticonvulsant activity against maximal electroshock-induced seizure in Albino mouse at 300 mg/kg, ip after 4 hrs. Format: functional, organism-based. On the set-up: dose 300 mg/kg.
Data set [4] deals with Mus musculus. Nature of the data set: Anticonvulsant activity against pentylenetetrazole-induced seizures in Albino mouse at 100 mg/kg, ip after 0.5 hrs. The class given is functional, organism-based. Set-up: dose 100 mg/kg.
For data set [5], the system named is Mus musculus. Description: Neurotoxicity in Albino mouse at 300 mg/kg, ip after 4 hrs by rotarod test. The class given is toxicity, organism-based. On the set-up: dose 300 mg/kg, route intraperitoneal. The conditions noted are these: in vivo.
Data set [6] relates to Mus musculus. Description: Neurotoxicity in Albino mouse at 100 mg/kg, ip after 0.5 hrs by rotarod test. On the set-up: dose 100 mg/kg, route intraperitoneal. The class given is toxicity, organism-based. The conditions noted are these: in vivo.
Data set [7] concerns Mus musculus. Description: Anticonvulsant activity against pentylenetetrazole-induced seizures in Albino mouse at 300 mg/kg, ip after 0.5 hrs. The class given is functional, organism-based. On the set-up: dose 300 mg/kg.
Data set [8] has as its system Mus musculus. Nature of the data set: Anticonvulsant activity against maximal electroshock-induced seizure in Albino mouse at 300 mg/kg, ip after 0.5 hrs. On the set-up: dose 300 mg/kg. The class given is functional, organism-based.
Data set [9] concerns Mus musculus. Description: Neurotoxicity in Albino mouse at 300 mg/kg, ip after 0.5 hrs by rotarod test. Set-up: dose 300 mg/kg, route intraperitoneal. The settings on record: in vivo. The class given is toxicity, organism-based.
Data set [10] relates to Mus musculus. Nature of the data set: Anticonvulsant activity against maximal electroshock-induced seizure in Albino mouse at 30 mg/kg, ip after 4 hrs. Set-up: dose 30 mg/kg. The class given is functional, organism-based.
Data set [11] has as its system Rattus norvegicus. Description: Toxicity in rat at 30 mg/kg upto 4 hrs. Set-up: dose 30 mg/kg. Format: organism-based. The conditions noted are these: in vivo.
Data set [12] concerns Rattus norvegicus. Nature of the data set: Anticonvulsant activity against maximal electroshock-induced seizure in rat at 30 mg/kg, po upto 4 hrs. Format: functional, organism-based. Set-up: dose 30 mg/kg.
For data set [13], the system named is Rattus norvegicus. Nature of the data set: Anticonvulsant activity against maximal electroshock-induced seizure in rat at 30 mg/kg, po after 1 hr. Format: functional, organism-based. Set-up: dose 30 mg/kg.
For data set [14], the system named is Rattus norvegicus. Nature of the data set: Anticonvulsant activity against maximal electroshock-induced seizure in rat at 30 mg/kg, po after 0.5 hrs. The class given is functional, organism-based. Set-up: dose 30 mg/kg.
For data set [15], the system named is Rattus norvegicus. Nature of the data set: Anticonvulsant activity against maximal electroshock-induced seizure in rat at 30 mg/kg, po after 0.25 hrs. Set-up: dose 30 mg/kg. The class given is functional, organism-based.
Data set [16] concerns Mus musculus. Nature of the data set: Anticonvulsant activity against maximal electroshock-induced seizure in Albino mouse at 100 mg/kg, ip after 4 hrs. Format: organism-based. Set-up: dose 100 mg/kg, route intraperitoneal. The conditions noted are these: in vivo.
The test system of data set [17] is Mus musculus. Description: Anticonvulsant activity against maximal electroshock-induced seizure in Albino mouse at 100 mg/kg, ip after 0.5 hrs. The class given is organism-based. The settings on record: in vivo. On the set-up: dose 100 mg/kg, route intraperitoneal.
Data set [18] deals with Mus musculus. Description: Neurotoxicity in Albino mouse at 100 mg/kg, ip after 4 hrs by rotarod test. The class given is toxicity, organism-based. On the set-up: dose 100 mg/kg, route intraperitoneal. The settings on record: in vivo.

Molecules are shown by their SMILES. Calls of active or inactive are those of the source. No cut-off for these calls is given here.

Take `NC(=O)N1c2ccccc2C=Cc2ccccc21` [CARBAMAZEPINE]: the outcome in the data set on Mus musculus [1] and with Mus musculus [3] was inactive. Further, the outcome in the data set with Mus musculus [2] and with Mus musculus [4] was Active. The Activity result in the data set with Mus musculus [5] and in the data set with Mus musculus [6] was “Toxic” throughout.
Take `CCNC(=S)Nc1ccc(S(=O)(=O)Nc2nc3ccc(F)cc3s2)cc1`: the outcome with Mus musculus [1] and in the data set with Mus musculus [3] was inactive. Moreover, the outcome in the data set on Mus musculus [7] and with Mus musculus [8] was Active. For the same molecule, the Activity entry in the data set with Mus musculus [5] and with Mus musculus [9] was “Non-toxic” each time.
Take `CNC(=S)Nc1ccc(S(=O)(=O)Nc2nc3ccc(F)cc3s2)cc1`: the outcome in the data set on Mus musculus [1], in the data set on Mus musculus [7] and in the data set on Mus musculus [3] was inactive. Moreover, the outcome in the data set with Mus musculus [8] was Active. Also, the Activity result with Mus musculus [5] and in the data set with Mus musculus [9] was “Non-toxic” throughout.
Regarding `CCNC(=S)Nc1ccc(S(=O)(=O)Nc2nc3ccc(Cl)cc3s2)cc1`, the outcome in the data set on Mus musculus [1], in the data set on Mus musculus [10] and with Rattus norvegicus [12] was Active. Also, the outcome in the data set on Mus musculus [7], with Rattus norvegicus [13], with Mus musculus [8], in the data set on Rattus norvegicus [14] and in the data set with Rattus norvegicus [15] was inactive. Moreover, the Activity result in the data set on Rattus norvegicus [11] is listed as “Non-toxic”; in the data set on Mus musculus [5], “Toxic”; with Mus musculus [9], “Non-toxic”.
On to `CNC(=S)Nc1ccc(S(=O)(=O)Nc2nc3ccc(Cl)cc3s2)cc1`, for which the result in the data set on Mus musculus [1] and with Rattus norvegicus [12] was Active. Further, the outcome in the data set on Mus musculus [7] and with Mus musculus [8] was inactive. For the same molecule, the Activity entry in the data set on Rattus norvegicus [11] is given as “Non-toxic”; in the data set with Mus musculus [16], “Active”; with Mus musculus [5], “Toxic”; in the data set with Mus musculus [9], “Non-toxic”.
In the case of `Cc1ccc(NC(=S)Nc2ccc(S(=O)(=O)Nc3ccc(Cl)cc3)cc2)cc1`, the result in the data set on Mus musculus [7] and in the data set with Mus musculus [3] was Active. For the same molecule, the values for the Activity result with Mus musculus [17], in the data set on Mus musculus [5] and in the data set on Mus musculus [9] were “Active”, “Toxic” and “Toxic”, respectively.
`CCC1(C)CC(=O)NC1=O` (stereo not given) [ETHOSUXIMIDE]: the result in the data set with Mus musculus [1], with Mus musculus [3] and with Mus musculus [8] was inactive. Further, the result in the data set with Mus musculus [7] was Active. Besides, the Activity entry with Mus musculus [5] and in the data set with Mus musculus [9] was “Non-toxic” in each case.
Take `CNC(=S)Nc1ccc(S(=O)(=O)Nc2ccc(Br)cc2)cc1`: the result with Mus musculus [1] was inactive. The outcome in the data set on Mus musculus [7] and with Mus musculus [8] was Active. Moreover, the Activity result in the data set on Mus musculus [5] is reported as “Non-toxic”; with Mus musculus [9], “Toxic”.
In the case of `Cc1ccc(NC(=S)Nc2ccc(S(=O)(=O)Nc3ccc(Br)cc3)cc2)cc1`, in the data set on Mus musculus [1], the result was inactive. Further, the result in the data set on Mus musculus [7] and in the data set on Mus musculus [3] was Active. The results for the Activity entry in the data set on Mus musculus [17], in the data set on Mus musculus [5] and in the data set on Mus musculus [9] were “Active”, “Toxic” and “Toxic”, respectively.
For the molecule `CCCC(CCC)C(=O)O` [VALPROIC ACID], the result in the data set on Mus musculus [1], with Mus musculus [3] and in the data set with Mus musculus [8] was inactive. Besides, the result in the data set with Mus musculus [7] was Active. In addition, the Activity result with Mus musculus [5] and with Mus musculus [9] was “Non-toxic” in each case.
For the molecule `O=C1NC(=O)C(c2ccccc2)(c2ccccc2)N1` [PHENYTOIN], the result in the data set on Mus musculus [1] and in the data set with Mus musculus [7] was inactive. The result with Mus musculus [10], in the data set on Mus musculus [2] and in the data set with Rattus norvegicus [14] was Active. The Activity result in the data set with Mus musculus [18] and with Mus musculus [6] was “Toxic” throughout.
In the case of `CCNC(=S)Nc1ccc(S(=O)(=O)Nc2nc3ccc(OC)cc3s2)cc1`, the result in the data set with Mus musculus [1], in the data set with Mus musculus [7], in the data set on Mus musculus [3] and in the data set on Mus musculus [8] was inactive. Besides, the Activity entry in the data set on Mus musculus [5] and in the data set on Mus musculus [9] was “Non-toxic” in each case.
For the molecule `Cc1ccc(NC(=S)Nc2ccc(S(=O)(=O)Nc3ccc(C)cc3)cc2)cc1`, the result in the data set on Mus musculus [1] was inactive. The result in the data set on Mus musculus [7], with Mus musculus [3] and in the data set with Mus musculus [8] was Active. The results for the Activity entry in the data set with Mus musculus [5] and with Mus musculus [9] were “Non-toxic” and “Toxic”, respectively.
Regarding `CNC(=S)Nc1ccc(S(=O)(=O)Nc2nc3ccc(OC)cc3s2)cc1`, the outcome in the data set on Mus musculus [1], with Mus musculus [7] and in the data set with Mus musculus [3] was inactive. Moreover, the result in the data set on Mus musculus [8] was Active. The Activity result in the data set on Mus musculus [5] and in the data set with Mus musculus [9] was “Non-toxic” in each case.
Consider `CNC(=S)Nc1ccc(S(=O)(=O)Nc2ccc(Cl)cc2)cc1`, for which the outcome in the data set with Mus musculus [7], in the data set with Mus musculus [3] and in the data set with Mus musculus [8] was Active. The Activity entry with Mus musculus [5] and with Mus musculus [9] was “Toxic” each time.

Source of the values: ChEMBL document CHEMBL1138381, “Synthesis and anticonvulsant activity of sulfonamide derivatives-hydrophobic domain” (Bioorg Med Chem Lett, 2007).
